# Reference: patent publication US20090181898A1, “ABUSE-RESISTANT A[…]” (SHIRE LLC, priority 2002, published 2009)
# Key:
# [1] = Intranasal bioavailability (LC/MS/MS); conditions: rat, in vivo, other: intranasal, 3 mg/kg
# rats [2] = assay: Horizontal locomotor activity after oral administration; format: in vivo, Sprague-Dawley rats; conditions: for Peak of activity (Counts per 0.2 h) / Time of Last Count Above 200 per 0.2 h / Total Activity Counts / Total Activity Counts Above Baseline: rats, oral gavage 6 mg/kg
# rats [3] = assay: Locomotor activity after intranasal administration with and without CMC; format: in vivo, Sprague-Dawley rats
# Description: The CMC drug mixtures were suspended thoroughly before each dose was delivered.
# rats [4] = assay: Locomotor activity after intravenous administration; format: in vivo, Sprague-Dawley rats; conditions: rat, 1.0 mg/kg
# stimulant abusers = assay: Abuse liability of intravenous L-lysine-d-amphetamine in stimulant abusers; conditions: IV
# [5] = Oral bioavailability at escalating doses (LC/MS/MS); conditions: rat; for AUC(0-inf): in vivo, po; for F (fraction of intact L-lysine-d-amphetamine absorbed): oral
# anesthetized dog = assay: Cardiovascular effects following intravenous injection in the anesthetized dog
# [6] = rats, intranasal 1.0 mg/kg, 1 h
# [7] = L-lysine-d-amphetamine 50 mg, d-amphetamine 20 mg
structure (smiles),measurement,setting,value
"CC(Cc1ccccc1)NC(=O)C(N)CCCCN [L-lysine-d-amphetamine, 2,6-diaminohexanoic acid-(1-methyl-2-phenylethyl)-amide]",concentration at 0 h,[1],0 ng/mL
same,Increase of total HLA activity counts over those induced by d-amphetamine,"rats [2]; rat, oral, 6 mg/kg, three experiments (5, 8, 12 h)",11-41%
same,Peak of activity (Counts per 0.2 h),rats [2]; 5 h experiment,318 Counts per 0.2 h
same,Time of Last Count Above 200 per 0.2 h,rats [2]; 5 h experiment,5 h
same,Total Activity Counts,rats [2]; 5 h experiment,6417
same,Total Activity Counts Above Baseline,rats [2]; 5 h experiment,5902
same,Peak of activity (Counts per 0.2 h),rats [2]; 12 h experiment,256 Counts per 0.2 h
same,Time of Last Count Above 200 per 0.2 h,rats [2]; 12 h experiment,8.6 h
same,Total Activity Counts,rats [2]; 12 h experiment,8423
same,Total Activity Counts Above Baseline,rats [2]; 12 h experiment,7487
same,Increase in activity over baseline compared to activity for d-amphetamine dosed animals,"rats [3]; rat, intranasal, 1.0 mg/kg",34%
same,Percent Amp (activity above baseline relative to Amp),rats [3]; [6],35%
same,Total Activity Counts (1 h),rats [3]; [6],408
same,Total Activity Counts Above Baseline,rats [3]; [6],237
same,Total Activity Counts (3 h),rats [4],767
same,"Activity above baseline, Percent Amp",rats [4]; 3 h,34%
same,Total Activity Counts Above Baseline,rats [4]; 3 h,463
same,Euphoria or amphetamine-like subjective effects,stimulant abusers; 50 mg,did not produce euphoria or amphetamine-like subjective effects
same,Mean maximum response on Subject Liking VAS vs placebo,stimulant abusers; [7],not greater than placebo
same,Subjects (of 9) who would take the treatment again,stimulant abusers; [7],one
same,AUC(0-inf),[5]; 3 mg/kg,331 ng·h/mL
same,AUC(0-inf),[5]; 6 mg/kg,1180 ng·h/mL
same,AUC(0-inf),[5]; 12 mg/kg,5170 ng·h/mL
same,AUC(0-inf),[5]; 60 mg/kg,8460 ng·h/mL
same,F (fraction of intact L-lysine-d-amphetamine absorbed),[5]; 3 mg/kg,7.2%
same,F (fraction of intact L-lysine-d-amphetamine absorbed),[5]; 6 mg/kg,12.8%
same,F (fraction of intact L-lysine-d-amphetamine absorbed),[5]; 12 mg/kg,24.6%
same,F (fraction of intact L-lysine-d-amphetamine absorbed),[5]; 60 mg/kg,9.3%
same,Increase in mean BP,"anesthetized dog; dog, IV, approximately 30 minutes after injection",20-50%
same,DAP % Change,"anesthetized dog; iv 0.5 mg/kg, Time 0",0%
same,DAP diastolic arterial pressure,"anesthetized dog; iv 0.5 mg/kg, Time 0",51 mmHg
same,LVP % Change,"anesthetized dog; iv 0.5 mg/kg, Time 0",0%
same,LVP left ventricular pressure,"anesthetized dog; iv 0.5 mg/kg, Time 0",86 mmHg
same,MAP % Change,"anesthetized dog; iv 0.5 mg/kg, Time 0",0%
same,MAP mean arterial pressure,"anesthetized dog; iv 0.5 mg/kg, Time 0",64 mmHg
same,SAP % Change,"anesthetized dog; iv 0.5 mg/kg, Time 0",0%
same,SAP systolic arterial pressure,"anesthetized dog; iv 0.5 mg/kg, Time 0",84 mmHg
same,DAP % Change,"anesthetized dog; iv 0.5 mg/kg, Time 5",3%
same,DAP diastolic arterial pressure,"anesthetized dog; iv 0.5 mg/kg, Time 5",52 mmHg
same,LVP % Change,"anesthetized dog; iv 0.5 mg/kg, Time 5",2%
same,LVP left ventricular pressure,"anesthetized dog; iv 0.5 mg/kg, Time 5",87 mmHg
same,MAP % Change,"anesthetized dog; iv 0.5 mg/kg, Time 5",3%
same,MAP mean arterial pressure,"anesthetized dog; iv 0.5 mg/kg, Time 5",66 mmHg
same,SAP % Change,"anesthetized dog; iv 0.5 mg/kg, Time 5",4%
same,SAP systolic arterial pressure,"anesthetized dog; iv 0.5 mg/kg, Time 5",87 mmHg
same,DAP % Change,"anesthetized dog; iv 0.5 mg/kg, Time 15",1%
same,DAP diastolic arterial pressure,"anesthetized dog; iv 0.5 mg/kg, Time 15",51 mmHg
same,LVP % Change,"anesthetized dog; iv 0.5 mg/kg, Time 15",11%
same,LVP left ventricular pressure,"anesthetized dog; iv 0.5 mg/kg, Time 15",95 mmHg
same,MAP % Change,"anesthetized dog; iv 0.5 mg/kg, Time 15",5%
same,MAP mean arterial pressure,"anesthetized dog; iv 0.5 mg/kg, Time 15",67 mmHg
same,SAP % Change,"anesthetized dog; iv 0.5 mg/kg, Time 15",11%
same,SAP systolic arterial pressure,"anesthetized dog; iv 0.5 mg/kg, Time 15",93 mmHg
same,DAP % Change,"anesthetized dog; iv 0.5 mg/kg, Time 25",8%
same,DAP diastolic arterial pressure,"anesthetized dog; iv 0.5 mg/kg, Time 25",55 mmHg
same,LVP % Change,"anesthetized dog; iv 0.5 mg/kg, Time 25",22%
same,LVP left ventricular pressure,"anesthetized dog; iv 0.5 mg/kg, Time 25",105 mmHg
same,MAP % Change,"anesthetized dog; iv 0.5 mg/kg, Time 25",15%
same,MAP mean arterial pressure,"anesthetized dog; iv 0.5 mg/kg, Time 25",73 mmHg
same,SAP % Change,"anesthetized dog; iv 0.5 mg/kg, Time 25",25%
same,SAP systolic arterial pressure,"anesthetized dog; iv 0.5 mg/kg, Time 25",104 mmHg
same,DAP % Change,"anesthetized dog; iv 0.5 mg/kg, Time 30",14%
same,DAP diastolic arterial pressure,"anesthetized dog; iv 0.5 mg/kg, Time 30",58 mmHg
same,LVP % Change,"anesthetized dog; iv 0.5 mg/kg, Time 30",26%
same,LVP left ventricular pressure,"anesthetized dog; iv 0.5 mg/kg, Time 30",108 mmHg
same,MAP % Change,"anesthetized dog; iv 0.5 mg/kg, Time 30",21%
same,MAP mean arterial pressure,"anesthetized dog; iv 0.5 mg/kg, Time 30",77 mmHg
same,SAP % Change,"anesthetized dog; iv 0.5 mg/kg, Time 30",28%
same,SAP systolic arterial pressure,"anesthetized dog; iv 0.5 mg/kg, Time 30",107 mmHg
same,DAP % Change,"anesthetized dog; iv 1.0 mg/kg, Time 0",0%
same,DAP diastolic arterial pressure,"anesthetized dog; iv 1.0 mg/kg, Time 0",55 mmHg
same,LVP % Change,"anesthetized dog; iv 1.0 mg/kg, Time 0",0%
same,LVP left ventricular pressure,"anesthetized dog; iv 1.0 mg/kg, Time 0",108 mmHg
same,MAP % Change,"anesthetized dog; iv 1.0 mg/kg, Time 0",0%
same,MAP mean arterial pressure,"anesthetized dog; iv 1.0 mg/kg, Time 0",74 mmHg
same,SAP % Change,"anesthetized dog; iv 1.0 mg/kg, Time 0",0%
same,SAP systolic arterial pressure,"anesthetized dog; iv 1.0 mg/kg, Time 0",105 mmHg
same,DAP % Change,"anesthetized dog; iv 1.0 mg/kg, Time 5",15%
same,DAP diastolic arterial pressure,"anesthetized dog; iv 1.0 mg/kg, Time 5",63 mmHg
same,LVP % Change,"anesthetized dog; iv 1.0 mg/kg, Time 5",11%
same,LVP left ventricular pressure,"anesthetized dog; iv 1.0 mg/kg, Time 5",120 mmHg
same,MAP % Change,"anesthetized dog; iv 1.0 mg/kg, Time 5",15%
same,MAP mean arterial pressure,"anesthetized dog; iv 1.0 mg/kg, Time 5",85 mmHg
same,SAP % Change,"anesthetized dog; iv 1.0 mg/kg, Time 5",15%
same,SAP systolic arterial pressure,"anesthetized dog; iv 1.0 mg/kg, Time 5",121 mmHg
same,DAP % Change,"anesthetized dog; iv 1.0 mg/kg, Time 15",33%
same,DAP diastolic arterial pressure,"anesthetized dog; iv 1.0 mg/kg, Time 15",73 mmHg
same,LVP % Change,"anesthetized dog; iv 1.0 mg/kg, Time 15",29%
same,LVP left ventricular pressure,"anesthetized dog; iv 1.0 mg/kg, Time 15",140 mmHg
same,MAP % Change,"anesthetized dog; iv 1.0 mg/kg, Time 15",35%
same,MAP mean arterial pressure,"anesthetized dog; iv 1.0 mg/kg, Time 15",100 mmHg
same,SAP % Change,"anesthetized dog; iv 1.0 mg/kg, Time 15",35%
same,SAP systolic arterial pressure,"anesthetized dog; iv 1.0 mg/kg, Time 15",142 mmHg
same,DAP % Change,"anesthetized dog; iv 1.0 mg/kg, Time 25",75%
same,DAP diastolic arterial pressure,"anesthetized dog; iv 1.0 mg/kg, Time 25",97 mmHg
same,LVP % Change,"anesthetized dog; iv 1.0 mg/kg, Time 25",50%
same,LVP left ventricular pressure,"anesthetized dog; iv 1.0 mg/kg, Time 25",162 mmHg
same,MAP % Change,"anesthetized dog; iv 1.0 mg/kg, Time 25",68%
same,MAP mean arterial pressure,"anesthetized dog; iv 1.0 mg/kg, Time 25",124 mmHg
same,SAP % Change,"anesthetized dog; iv 1.0 mg/kg, Time 25",55%
same,SAP systolic arterial pressure,"anesthetized dog; iv 1.0 mg/kg, Time 25",163 mmHg
same,DAP % Change,"anesthetized dog; iv 1.0 mg/kg, Time 30",32%
same,DAP diastolic arterial pressure,"anesthetized dog; iv 1.0 mg/kg, Time 30",73 mmHg
same,LVP % Change,"anesthetized dog; iv 1.0 mg/kg, Time 30",33%
same,LVP left ventricular pressure,"anesthetized dog; iv 1.0 mg/kg, Time 30",144 mmHg
same,MAP % Change,"anesthetized dog; iv 1.0 mg/kg, Time 30",32%
same,MAP mean arterial pressure,"anesthetized dog; iv 1.0 mg/kg, Time 30",98 mmHg
same,SAP % Change,"anesthetized dog; iv 1.0 mg/kg, Time 30",28%
same,SAP systolic arterial pressure,"anesthetized dog; iv 1.0 mg/kg, Time 30",134 mmHg
same,DAP % Change,"anesthetized dog; iv 5.0 mg/kg, Time 0",0%
same,DAP diastolic arterial pressure,"anesthetized dog; iv 5.0 mg/kg, Time 0",71 mmHg
same,LVP % Change,"anesthetized dog; iv 5.0 mg/kg, Time 0",0%
same,LVP left ventricular pressure,"anesthetized dog; iv 5.0 mg/kg, Time 0",144 mmHg
same,MAP % Change,"anesthetized dog; iv 5.0 mg/kg, Time 0",0%
same,MAP mean arterial pressure,"anesthetized dog; iv 5.0 mg/kg, Time 0",95 mmHg
same,SAP % Change,"anesthetized dog; iv 5.0 mg/kg, Time 0",0%
same,SAP systolic arterial pressure,"anesthetized dog; iv 5.0 mg/kg, Time 0",132 mmHg
same,DAP % Change,"anesthetized dog; iv 5.0 mg/kg, Time 5",0%
same,DAP diastolic arterial pressure,"anesthetized dog; iv 5.0 mg/kg, Time 5",71 mmHg
same,LVP % Change,"anesthetized dog; iv 5.0 mg/kg, Time 5",5%
same,LVP left ventricular pressure,"anesthetized dog; iv 5.0 mg/kg, Time 5",151 mmHg
same,MAP % Change,"anesthetized dog; iv 5.0 mg/kg, Time 5",4%
same,MAP mean arterial pressure,"anesthetized dog; iv 5.0 mg/kg, Time 5",99 mmHg
same,SAP % Change,"anesthetized dog; iv 5.0 mg/kg, Time 5",7%
same,SAP systolic arterial pressure,"anesthetized dog; iv 5.0 mg/kg, Time 5",142 mmHg
same,DAP % Change,"anesthetized dog; iv 5.0 mg/kg, Time 15",39%
same,DAP diastolic arterial pressure,"anesthetized dog; iv 5.0 mg/kg, Time 15",98 mmHg
same,LVP % Change,"anesthetized dog; iv 5.0 mg/kg, Time 15",28%
same,LVP left ventricular pressure,"anesthetized dog; iv 5.0 mg/kg, Time 15",184 mmHg
same,MAP % Change,"anesthetized dog; iv 5.0 mg/kg, Time 15",37%
same,MAP mean arterial pressure,"anesthetized dog; iv 5.0 mg/kg, Time 15",130 mmHg
same,SAP % Change,"anesthetized dog; iv 5.0 mg/kg, Time 15",33%
same,SAP systolic arterial pressure,"anesthetized dog; iv 5.0 mg/kg, Time 15",176 mmHg
same,DAP % Change,"anesthetized dog; iv 5.0 mg/kg, Time 25",−3%
same,DAP diastolic arterial pressure,"anesthetized dog; iv 5.0 mg/kg, Time 25",69 mmHg
same,LVP % Change,"anesthetized dog; iv 5.0 mg/kg, Time 25",11%
same,LVP left ventricular pressure,"anesthetized dog; iv 5.0 mg/kg, Time 25",160 mmHg
same,MAP % Change,"anesthetized dog; iv 5.0 mg/kg, Time 25",1%
same,MAP mean arterial pressure,"anesthetized dog; iv 5.0 mg/kg, Time 25",96 mmHg
same,SAP % Change,"anesthetized dog; iv 5.0 mg/kg, Time 25",−5%
same,SAP systolic arterial pressure,"anesthetized dog; iv 5.0 mg/kg, Time 25",126 mmHg
same,DAP % Change,"anesthetized dog; iv 5.0 mg/kg, Time 30",−1%
same,DAP diastolic arterial pressure,"anesthetized dog; iv 5.0 mg/kg, Time 30",70 mmHg
same,LVP % Change,"anesthetized dog; iv 5.0 mg/kg, Time 30",13%
same,LVP left ventricular pressure,"anesthetized dog; iv 5.0 mg/kg, Time 30",163 mmHg
same,MAP % Change,"anesthetized dog; iv 5.0 mg/kg, Time 30",4%
same,MAP mean arterial pressure,"anesthetized dog; iv 5.0 mg/kg, Time 30",99 mmHg
same,SAP % Change,"anesthetized dog; iv 5.0 mg/kg, Time 30",0%
same,SAP systolic arterial pressure,"anesthetized dog; iv 5.0 mg/kg, Time 30",132 mmHg
